The record followed here is patent publication US20050112573A1, “Method of detecting toxic substance” (priority 2001, published 2005).

Holding throughout (type): cell-based, Saccharomyces cerevisiae W303
Experiment [1] has as its system promoter of yeast gene YKL071w. The text has this:
(§1) The inventors of the present application understood that the induction of certain yeast genes by toxic substances is caused by the activation of the promoters of the genes by the toxic substances. Thus, the inventors prepared a vector that comprised a polynucleotide sequence comprising the promoter of the yeast gene, which sequence is operably linked to a polynucleotide encoding a marker protein; and transformed yeast cells with the vector. […] The working examples hereinafter illustrate the preparation of such vectors, transformation of yeast cells by use of said vectors, and the detection of toxic substances by use of the transformed cells.
(§2) Promoter assay is a method for determining variations of the level of intracellular genes without destroying cells on the basis of the level of expressed marker genes instead of the expressed mRNA. The gene selected to detect a chemical substance is expressed in the absence of chemical substances, and thus a marker protein also occurs in the absence of chemical substances. In the method according to the present invention, the behavior of yeast genes on the addition of test materials is determined on the basis of the level of expressed marker protein so that the presence or the absence, and the kind of toxic chemical substances are predicted. Thus, it is desired that the production of marker proteins is lower in the absence of chemical substances, and the production of marker proteins is higher in the presence of chemical substances.
(§3) Type YEp shuttle vector pYES2 (pYES2, Cat no: V825-20, Invirtogen Corporation, USA), which can be replicated both in E. coli. and yeast was used as vector (R. W. Old, S. B. Primrose Principles of Gene Manipulation 5th Ed., BAIFUKAN CO., LTD, pp138-165, pp.234-263, 2000). The portion of vector pQBI 63 (Cat no.54-0082, Wako Pure Chemical Industries, Ltd.) corresponding to a marker protein GFP was used as the polynucleotide encoding GFP (SEQ ID No: 6). First, the GFP polynucleotide was inserted into the multiple cloning sites of pYES2 to give a vector. Thereafter, the GAL1 promoter of pYES2 was replaced with the polynucleotide comprising the promoter sequence of the intended yeast gene YKL071w (SEQ ID No: 1) to give an intended plasmid vector. Suitable restriction enzymes were selected, and the insertion of the polynucleotide comprising GFP and the promoter sequence was conducted.
(§4) Next, the yeast Saccharomyces cerevisiae W303 was transformed with the resultant plasmid vector according to the following procedures: • 1) Incubating the yeast Saccharomyces cerevisiae W303 in 200 ml of SD medium under shaking until OD 660 reaches 0.5; • 2) Suspending the collected cells in 5 ml of TE-buffer; • 3) Adding 250 μL of 2.5M lithium acetate; • 4) Dispending each 300 μl, adding 10 μl of above plasmid vector thereto, then incubating the suspensions at 30° C. for 30 minutes; • 5) Adding 700 μl of 50% PEG4000, and incubating the mixture under shaking at 30° C. for 60 minutes; • 6) Giving heat shock (42° C., 5 minutes), and then immediately cooling the mixture; • 7) Washing the mixture twice with 1M sorbitol; and • 8) Seeding it on agar plates made of minimum essential medium.
The cells of SC-YKL071W-pQBI as prepared in Example 2 were contacted to one of the following compounds. The yeast cells SC-YKL071W-pQBI were incubated at 25° C. in SD medium (Yeast nitrogen base without amino acids (Difco 0919-15)+glucose+amino acids (adenine, histidine, tryptophan)). One of toxic chemical substances as shown below was added to the cells at logarithmic growth phase, and then the cells were further incubated for two hours.

For experiment [2], the system named is promoter of yeast gene YCR102c.
From the text: as §1, §2
as §3, with “PQBI” for “pQBI”, “GALL” for “GAL1”, “YCR102c” for “YKL071w”, “2)” for “1)”
as §4
The cells of SC-YCR102C-pQBI as prepared in Example 3 were contacted to one of the following compounds. The yeast cells SC-YCR102C-pQBI were incubated at 25° C. in SD medium (Yeast nitrogen base without amino acids (Difco 0919-15)+glucose+amino acids (adenine, histidine, tryptophan)). One of toxic chemical substances as shown below was added to the cells at logarithmic growth phase, and then the cells were further incubated for two hours.

In experiment [3] the test system is promoter of yeast gene YLR303w. Particulars: for expression of GFP: SC-YCR303W-pQBI cells (so in the source), summary of Table 14.
From the text: as §1, §2
as §3, with “YLR303w” for “YKL071w”, “5)” for “1)”
as §4
The cells of SC-YCR303W-pQBI as prepared in Example 6 were contacted to one of the following compounds. The yeast cells SC-YCR303W-pQBI were incubated at 25° C. in SD medium (Yeast nitrogen base without amino acids (Difco 0919-15)+glucose+amino acids (adenine, histidine, tryptophan)). One of toxic chemical substances as shown below was added to the cells at logarithmic growth phase, and then the cells were further incubated for two hours.

Where [4] appears, read: SC-YKL071W-pQBI cells, 25° C., two hours, each substance at the concentration given.
Where [5] appears, read: cells SC-YCR102C-pQBI, 2 hours incubation with the substance at the concentration printed in its row (column Concentrations), GFP fluorescence vs control without chemical.
Setting [6] is: cells SC-YCR303W-pQBI (so in the source), 2 hours incubation with the substance at the concentration printed in its row (column Concentrations), GFP fluorescence vs control without chemical.

Like-named read-outs stand apart in the source and are kept apart here.

Turning to `CCCCC(CC)COC(=O)c1ccccc1C(=O)OCC(CC)CCCC` (centres unmarked), the Fluorescens result in experiment [1] (setting [4]) is recorded as “− (the number of the cells having a higher fluorescence than the control was under 1%)”. Also, the Fluorescence result in experiment [2] (setting [5]) and in experiment [3] (setting [6]) was “− (the number of the cells having a higher fluorescence than the control was under 1%)” in each case.
`CN(C)C(=S)SSC(=S)N(C)C` [(10), Tetramethylthiuram disulfide]: the “expression of GFP” value in experiment [1] (SC-YKL071W-pQBI cells, summary of Table 10) is given as “induced the expression of GFP”; in experiment [2] (SC-YCR102C-pQBI cells, summary of Table 11) it was “induced the expression of GFP”.
Take `CCN(CC)C(=O)SCc1ccc(Cl)cc1` [S-4-Chlorobenzyl-N,N-diethylthiocarbamate]: the Fluorescens result in experiment [1] (setting [4]) is “− (the number of the cells having a higher fluorescence than the control was under 1%)”. Besides, the Fluorescence result in experiment [2] (setting [5]) and in experiment [3] (setting [6]) was “− (the number of the cells having a higher fluorescence than the control was under 1%)” each time.
`CC(=O)O.Cc1nc(N)cc2[nH]c3ccccc3c12` [Trp-P-2 (acetate)]: the Fluorescens result in experiment [1] is “− (key: −: the number of the cells having a higher fluorescence than the control was under 1%; +: between 1% and 2%; ++: 2% or more)”. For the same molecule, the Fluorescence result in experiment [2] was “− (key: −: the number of the cells having a higher fluorescence than the control was under 1%; +: between 1% and 2%; ++: 2% or more)”; in experiment [3], “− (key: −: the number of the cells having a higher fluorescence than the control was under 1%; +: between 1% and 2%; ++: 2% or more)”.
In the case of `O=S(=O)([O-])[O-].[Cu+2]` [copper sulfate (II)], the Fluorescens entry in experiment [1] is “− (key: −: the number of the cells having a higher fluorescence than the control was under 1%; +: between 1% and 2%; ++: 2% or more)”. In addition, the Fluorescence entry in experiment [2] is “− (key: −: the number of the cells having a higher fluorescence than the control was under 1%; +: between 1% and 2%; ++: 2% or more)”; in experiment [3], “− (key: −: the number of the cells having a higher fluorescence than the control was under 1%; +: between 1% and 2%; ++: 2% or more)”.
Turning to `CCOC(=O)CC(SP(=S)(OC)OC)C(=O)OCC` (centres unmarked) [malathon], the Fluorescens result in experiment [1] (setting [4]) is on record as “− (the number of the cells having a higher fluorescence than the control was under 1%)”. Further, the Fluorescence result in experiment [2] (setting [5]) and in experiment [3] (setting [6]) was “− (the number of the cells having a higher fluorescence than the control was under 1%)” in each case.
Take `[CH3][Hg][Cl]` [methylmercury chloride]: in experiment [1] (setting [4]), the Fluorescens entry was “− (the number of the cells having a higher fluorescence than the control was under 1%)”. Further, the Fluorescence entry in experiment [2] (setting [5]) and in experiment [3] (setting [6]) was “− (the number of the cells having a higher fluorescence than the control was under 1%)” throughout.
Take `[Cl][Ni][Cl]` [nickel (II) chloride]: the Fluorescens entry in experiment [1] was “− (key: −: the number of the cells having a higher fluorescence than the control was under 1%; +: between 1% and 2%; ++: 2% or more)”. Besides, the Fluorescence entry in experiment [2] is “− (key: −: the number of the cells having a higher fluorescence than the control was under 1%; +: between 1% and 2%; ++: 2% or more)”; in experiment [3], “− (key: −: the number of the cells having a higher fluorescence than the control was under 1%; +: between 1% and 2%; ++: 2% or more)”.
For `[K+].[K+].[O]=[Cr](=[O])([O-])[O][Cr](=[O])(=[O])[O-]` [potassium bichromate], in experiment [1] (setting [4]), the Fluorescens result is recorded as “− (the number of the cells having a higher fluorescence than the control was under 1%)”. Moreover, the Fluorescence result in experiment [2] (setting [5]) and in experiment [3] (setting [6]) was “− (the number of the cells having a higher fluorescence than the control was under 1%)” in each case.
For the molecule `[Cl][Sn]([c]1ccccc1)([c]1ccccc1)[c]1ccccc1` [triphenyltin chloride], the Fluorescens entry in experiment [1] (setting [4]) was “− (the number of the cells having a higher fluorescence than the control was under 1%)”. The Fluorescence entry in experiment [2] (setting [5]) and in experiment [3] (setting [6]) was “− (the number of the cells having a higher fluorescence than the control was under 1%)” in each case.
For CdCl2 [(2)], the Fluorescens entry in experiment [1] (setting [4]) was “− (the number of the cells having a higher fluorescence than the control was under 1%)”. Moreover, the Fluorescence result is listed as “− (the number of the cells having a higher fluorescence than the control was under 1%)” in experiment [2] (setting [5]) and “++ (2% or more)” in experiment [3] (setting [6]). For the same molecule, the “expression of GFP” value in experiment [3] is given as “induced the expression of GFP”.
For the molecule HgCl2 [(3)], the Fluorescens result in experiment [1] (setting [4]) was “− (the number of the cells having a higher fluorescence than the control was under 1%)”. Also, the Fluorescence result in experiment [2] (setting [5]) is recorded as “− (the number of the cells having a higher fluorescence than the control was under 1%)”; in experiment [3] (setting [6]) it was “++ (2% or more)”. In addition, in experiment [3], the “expression of GFP” value was “induced the expression of GFP”.
Consider Na2As [(1)], for which, in experiment [1] (setting [4]), the Fluorescens result is listed as “− (the number of the cells having a higher fluorescence than the control was under 1%)”. In addition, the Fluorescence result in experiment [2] (setting [5]) is given as “− (the number of the cells having a higher fluorescence than the control was under 1%)”; in experiment [3] (setting [6]) it was “++ (2% or more)”. In addition, the “expression of GFP” value in experiment [3] is “induced the expression of GFP”.
